Reference: paper PMC6803038 (Angewandte Chemie (International ed. in English), 2019)
Where no end group is shown, it is not given here. [ ]: non-standard residue; d: D form. Nle = CCCC[C@H](N)C(=O)O

T1: HDAC8 (UniProt Q9BY41 1-377)
T1 sequence (looked up): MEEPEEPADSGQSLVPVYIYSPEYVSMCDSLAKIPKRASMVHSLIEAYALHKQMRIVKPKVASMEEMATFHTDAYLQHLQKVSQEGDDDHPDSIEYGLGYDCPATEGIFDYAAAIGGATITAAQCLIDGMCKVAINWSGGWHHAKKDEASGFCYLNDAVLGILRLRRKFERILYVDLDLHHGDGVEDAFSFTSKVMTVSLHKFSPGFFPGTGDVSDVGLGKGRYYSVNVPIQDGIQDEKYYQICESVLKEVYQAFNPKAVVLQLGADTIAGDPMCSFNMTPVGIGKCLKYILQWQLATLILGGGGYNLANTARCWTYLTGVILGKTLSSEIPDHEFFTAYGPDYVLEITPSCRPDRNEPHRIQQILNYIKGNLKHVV


Tests used:
[1] = physiological conditions; cited from earlier work
[2] = biological target: TEV protease (Tobacco etch virus, UniProt P04517); experiment: Fluorescence polarization binding of 5-FAM-conjugated peptides to TEV protease; conditions: cyclic vs linear counterpart
[3] = biological target: T1, HDAC8; experiment: fluorescence polarisation

Sequence of TEV protease (P04517 2038-2279): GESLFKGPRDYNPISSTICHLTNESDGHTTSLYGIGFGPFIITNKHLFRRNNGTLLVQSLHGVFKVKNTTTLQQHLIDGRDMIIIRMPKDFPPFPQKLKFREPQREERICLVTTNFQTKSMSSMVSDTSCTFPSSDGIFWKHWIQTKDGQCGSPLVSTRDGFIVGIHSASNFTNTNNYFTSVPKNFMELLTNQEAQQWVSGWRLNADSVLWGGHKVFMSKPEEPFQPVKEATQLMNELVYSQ

| Molecule | better binding of cyclic peptide than its linear counterpart [2] [fold] | Kd [3] [µM] | other results |
| --- | --- | --- | --- |
| C=CC(=O)NCCCC[C@H](N)C(=O)O [AcrK, N^ε-acryloyl-lysine] |  |  | second-order rate constant of reaction with a thiol [1]: 0.004 M⁻¹ s⁻¹ |
| CC[C@H](C)[C@@H]1NC(=O)[C@H](CC(C)C)NC(=O)[C@H](Cc2ccc(O)cc2)NC(=O)[C@H](CC(=O)O)NC(=O)[C@H](CCCNC(=N)N)NC(=O)[C@H](Cc2c[nH]c3ccccc23)NC(=O)[C@@H](N)CSCCC(=O)NCCCC[C@@H](C(=O)O)NC1=O [CycTev1, CWRDYLIX] | > 6 |  |  |
| N=C(N)NCCC[C@@H]1NC(=O)[C@H](Cc2c[nH]cn2)NC(=O)[C@H](CO)NC(=O)[C@H](Cc2ccccc2)NC(=O)[C@H](Cc2c[nH]c3ccccc23)NC(=O)[C@H](CCC(N)=O)NC(=O)[C@@H](N)CSCCC(=O)NCCCC[C@@H](C(=O)O)NC1=O [CycTev2, CQWFSHRX] | > 6 |  |  |
| CQSLWMNK (also: 5-FAM conjugated, site not given here) [5-FAM-conjugated LinH8a] |  | > 50 |  |
| CQSLWMN[Nle] (also: 5-FAM conjugated, site not given here) [5-FAM-conjugated LinH8a’] |  | 31 ± 7 |  |
